# Test results taken from patent US20240092758A1, “IMIDAZOLO INDAZOLE COMPOUNDS AS JAK INHIBITORS” (Theravance Biopharma R&D IP, LLC, priority 2021, published 2024).
# Assays:
# JAK3 = JAK3 (Homo sapiens (Human), UniProt P52333); test: Biochemical JAK kinase assay (LanthaScreen), JAK3; settings: read-out: JAK3 pKi (converted)
# Procedure: (§1) A panel of four LanthaScreen JAK biochemical assays (JAK1, 2, 3 and Tyk2) were carried in a common kinase reaction buffer (50 mM HEPES, pH 7.5, 0.01% Brij-35, 10 mM MgCl2, and 1 mM EGTA). Recombinant GST-tagged JAK enzymes and a GFP-tagged STAT1 peptide substrate were obtained from Life Technologies.
# (§2) Serially diluted compounds were pre-incubated with each of the four JAK enzymes and the substrate in white 384-well microplates (Corning) at ambient temperature for 1 h. ATP was subsequently added to initiate the kinase reactions in 10 μL total volume, with 1% DMSO. The final enzyme concentrations for JAK1, 2, 3 and Tyk2 are 4.2 nM, 0.1 nM, 1 nM, and 0.25 nM respectively; the corresponding Km ATP concentrations used are 25 μM, 3 μM, 1.6 μM, and 10 μM; while the substrate concentration is 200 nM for all four assays. Kinase reactions were allowed to proceed for 1 hour at ambient temperature before a 10 μL preparation of EDTA (10 mM final concentration) and Tb-anti-pSTAT1 (pTyr701) antibody (Life Technologies, 2 nM final concentration) in TR-FRET dilution buffer (Life Technologies) was added. The plates were allowed to incubate at ambient temperature for 1 h before being read on the EnVision reader (Perkin Elmer). Emission ratio signals (520 nm/495 nm) were recorded and utilized to calculate the percent inhibition values based on DMSO and background controls.
# (§3) For dose-response analysis, percent inhibition data were plotted vs. compound concentrations, and IC50 values were determined from a 4-parameter robust fit model with the Prism software (GraphPad Software). Results were expressed as pIC50 (negative logarithm of IC50) and subsequently converted to pKi (negative logarithm of dissociation constant, Ki) using the Cheng-Prusoff equation.
# (§4) Test compounds having a lower Ki value or higher pKi value in the four JAK assays show greater inhibition of JAK activity.
# TYK2 = TYK2 (Homo sapiens (Human), UniProt P29597); test: Biochemical JAK kinase assay (LanthaScreen), Tyk2; settings: read-out: Tyk2 pKi (converted)
# Chain of TYK2 (P29597 whole entry): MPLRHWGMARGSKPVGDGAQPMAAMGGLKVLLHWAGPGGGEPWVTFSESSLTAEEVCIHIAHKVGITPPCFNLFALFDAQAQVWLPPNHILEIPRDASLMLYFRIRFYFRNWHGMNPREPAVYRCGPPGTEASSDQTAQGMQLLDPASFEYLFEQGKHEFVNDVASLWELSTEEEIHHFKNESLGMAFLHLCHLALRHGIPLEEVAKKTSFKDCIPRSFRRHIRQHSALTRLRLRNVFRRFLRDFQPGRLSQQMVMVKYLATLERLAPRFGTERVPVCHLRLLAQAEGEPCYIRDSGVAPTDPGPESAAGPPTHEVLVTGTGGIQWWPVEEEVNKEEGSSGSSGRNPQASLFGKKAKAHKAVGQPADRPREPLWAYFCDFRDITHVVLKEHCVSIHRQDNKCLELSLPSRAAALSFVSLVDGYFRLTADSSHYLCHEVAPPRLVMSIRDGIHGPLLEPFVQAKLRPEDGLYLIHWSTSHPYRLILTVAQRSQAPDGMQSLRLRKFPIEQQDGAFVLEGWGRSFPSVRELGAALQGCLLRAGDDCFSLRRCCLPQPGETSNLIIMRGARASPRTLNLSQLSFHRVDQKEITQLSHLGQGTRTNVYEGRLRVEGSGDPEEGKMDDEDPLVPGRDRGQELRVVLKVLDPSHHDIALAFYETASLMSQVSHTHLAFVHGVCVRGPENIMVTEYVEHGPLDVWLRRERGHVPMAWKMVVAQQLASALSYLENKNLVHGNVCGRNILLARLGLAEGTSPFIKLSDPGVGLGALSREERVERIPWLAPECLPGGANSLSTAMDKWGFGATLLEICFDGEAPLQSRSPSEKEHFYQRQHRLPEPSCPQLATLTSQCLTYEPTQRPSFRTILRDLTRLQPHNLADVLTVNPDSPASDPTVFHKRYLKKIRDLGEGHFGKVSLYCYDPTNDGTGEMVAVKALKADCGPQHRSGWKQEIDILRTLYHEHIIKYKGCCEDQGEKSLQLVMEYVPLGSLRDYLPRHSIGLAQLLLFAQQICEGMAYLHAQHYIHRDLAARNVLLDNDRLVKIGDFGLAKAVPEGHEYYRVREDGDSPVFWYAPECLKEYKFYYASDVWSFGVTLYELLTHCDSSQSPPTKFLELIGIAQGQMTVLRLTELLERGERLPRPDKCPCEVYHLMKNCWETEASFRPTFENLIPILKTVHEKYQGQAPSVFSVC
# Procedure: as §1, §2, §3, §4
# [1] = tested on: IL-13 induced STAT6 phosphorylation in BEAS-2B human lung epithelial cells; test: Cellular JAKI potency assay (BEAS-2B); assay type: cell-based; settings: Homo sapiens, BEAS-2B, BEAS-2B cells, read-out: BEAS2B pIC50 (converted)
# Summary of the method: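 AlphaLISA SureFire detection of Tyr641 pSTAT6 in lysates gave IC50s (4-parameter fit, expressed as pIC50). Cells: human BEAS-2B, exposed 1 h at 37 °C to compound dose series at 0.1% DMSO, then 30 min to IL-13 added at 80 ng/mL in HEPES-buffered HBSS with BSA.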
# JAK2 = JAK2 (Homo sapiens (Human), UniProt O60674); test: Biochemical JAK kinase assay (LanthaScreen), JAK2; settings: for Ki: read-out: JAK2 pKi (converted)
# Chain of JAK2 (O60674 whole entry): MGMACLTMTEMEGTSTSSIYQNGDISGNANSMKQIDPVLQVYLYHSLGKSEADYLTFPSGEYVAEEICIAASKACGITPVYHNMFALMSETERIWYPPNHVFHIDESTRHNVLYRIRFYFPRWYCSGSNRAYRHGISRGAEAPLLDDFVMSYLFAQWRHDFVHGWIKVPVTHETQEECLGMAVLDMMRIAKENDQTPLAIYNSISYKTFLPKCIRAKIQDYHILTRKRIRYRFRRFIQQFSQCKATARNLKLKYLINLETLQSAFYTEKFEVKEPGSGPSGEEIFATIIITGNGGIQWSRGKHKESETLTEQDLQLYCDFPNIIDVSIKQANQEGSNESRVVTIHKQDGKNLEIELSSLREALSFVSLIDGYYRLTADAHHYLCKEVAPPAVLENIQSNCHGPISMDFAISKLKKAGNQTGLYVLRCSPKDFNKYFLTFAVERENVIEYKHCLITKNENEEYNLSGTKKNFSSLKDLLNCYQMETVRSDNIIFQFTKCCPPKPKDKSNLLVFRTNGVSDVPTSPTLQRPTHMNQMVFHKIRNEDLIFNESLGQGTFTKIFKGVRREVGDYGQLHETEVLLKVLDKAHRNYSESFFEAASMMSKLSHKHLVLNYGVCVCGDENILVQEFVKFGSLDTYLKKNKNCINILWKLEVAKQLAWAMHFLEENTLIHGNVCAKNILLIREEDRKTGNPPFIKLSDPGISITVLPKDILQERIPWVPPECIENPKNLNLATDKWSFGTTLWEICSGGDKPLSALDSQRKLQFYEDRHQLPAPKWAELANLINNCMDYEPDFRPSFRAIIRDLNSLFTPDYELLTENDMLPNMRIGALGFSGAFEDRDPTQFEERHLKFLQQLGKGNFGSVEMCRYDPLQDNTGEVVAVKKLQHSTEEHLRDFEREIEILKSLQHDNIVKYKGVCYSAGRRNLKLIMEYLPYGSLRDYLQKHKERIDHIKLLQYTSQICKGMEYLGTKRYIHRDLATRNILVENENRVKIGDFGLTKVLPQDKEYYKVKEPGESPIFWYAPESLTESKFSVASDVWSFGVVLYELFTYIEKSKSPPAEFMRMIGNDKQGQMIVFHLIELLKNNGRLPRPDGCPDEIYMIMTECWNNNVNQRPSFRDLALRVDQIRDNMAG
# Summary of the method: (§5)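 LanthaScreen format: phospho-STAT1 (pTyr701) detected with 2 nM Tb antibody after 10 mM EDTA quench. Kinase step used Km-level ATP and 200 nM STAT1 peptide, 1 h at ambient after 1 h pre-incubation. Inhibition fitted to IC50, reported as pKi.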
# JAK1 = JAK1 (Homo sapiens (Human), UniProt P23458); test: Biochemical JAK kinase assay (LanthaScreen), JAK1; settings: for Ki: read-out: JAK1 pKi (converted)
# Chain of JAK1 (P23458 whole entry): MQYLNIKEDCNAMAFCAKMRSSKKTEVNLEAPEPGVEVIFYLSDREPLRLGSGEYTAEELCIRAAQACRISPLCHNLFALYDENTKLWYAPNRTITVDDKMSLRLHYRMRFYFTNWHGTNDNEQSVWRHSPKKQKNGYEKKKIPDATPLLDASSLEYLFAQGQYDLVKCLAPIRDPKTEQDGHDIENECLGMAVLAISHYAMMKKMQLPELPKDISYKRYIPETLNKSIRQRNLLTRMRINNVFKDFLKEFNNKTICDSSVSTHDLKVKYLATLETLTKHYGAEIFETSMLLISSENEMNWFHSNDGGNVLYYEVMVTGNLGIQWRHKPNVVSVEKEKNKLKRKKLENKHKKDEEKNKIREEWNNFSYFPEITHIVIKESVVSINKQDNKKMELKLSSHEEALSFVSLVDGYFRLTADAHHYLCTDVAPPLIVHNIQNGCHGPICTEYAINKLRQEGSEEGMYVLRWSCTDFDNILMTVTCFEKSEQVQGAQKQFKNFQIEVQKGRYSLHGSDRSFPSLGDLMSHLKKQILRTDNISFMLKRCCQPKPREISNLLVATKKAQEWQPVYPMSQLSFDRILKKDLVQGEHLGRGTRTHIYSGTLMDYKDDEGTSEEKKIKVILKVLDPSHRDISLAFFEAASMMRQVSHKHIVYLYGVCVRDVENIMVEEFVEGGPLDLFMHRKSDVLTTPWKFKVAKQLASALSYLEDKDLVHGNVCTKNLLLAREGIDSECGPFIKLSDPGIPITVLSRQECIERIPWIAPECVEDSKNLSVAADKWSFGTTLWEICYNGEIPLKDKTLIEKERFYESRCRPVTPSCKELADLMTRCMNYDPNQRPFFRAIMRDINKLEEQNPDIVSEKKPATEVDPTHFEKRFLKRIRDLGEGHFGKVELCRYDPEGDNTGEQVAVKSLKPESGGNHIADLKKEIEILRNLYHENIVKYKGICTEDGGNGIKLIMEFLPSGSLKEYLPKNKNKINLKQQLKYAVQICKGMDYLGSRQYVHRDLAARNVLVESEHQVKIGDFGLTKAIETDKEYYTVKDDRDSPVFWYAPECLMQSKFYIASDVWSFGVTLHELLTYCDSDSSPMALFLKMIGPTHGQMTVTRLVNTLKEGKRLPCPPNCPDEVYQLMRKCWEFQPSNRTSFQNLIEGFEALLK
# Summary of the method: as §5
# Chain of JAK3 (P52333 whole entry): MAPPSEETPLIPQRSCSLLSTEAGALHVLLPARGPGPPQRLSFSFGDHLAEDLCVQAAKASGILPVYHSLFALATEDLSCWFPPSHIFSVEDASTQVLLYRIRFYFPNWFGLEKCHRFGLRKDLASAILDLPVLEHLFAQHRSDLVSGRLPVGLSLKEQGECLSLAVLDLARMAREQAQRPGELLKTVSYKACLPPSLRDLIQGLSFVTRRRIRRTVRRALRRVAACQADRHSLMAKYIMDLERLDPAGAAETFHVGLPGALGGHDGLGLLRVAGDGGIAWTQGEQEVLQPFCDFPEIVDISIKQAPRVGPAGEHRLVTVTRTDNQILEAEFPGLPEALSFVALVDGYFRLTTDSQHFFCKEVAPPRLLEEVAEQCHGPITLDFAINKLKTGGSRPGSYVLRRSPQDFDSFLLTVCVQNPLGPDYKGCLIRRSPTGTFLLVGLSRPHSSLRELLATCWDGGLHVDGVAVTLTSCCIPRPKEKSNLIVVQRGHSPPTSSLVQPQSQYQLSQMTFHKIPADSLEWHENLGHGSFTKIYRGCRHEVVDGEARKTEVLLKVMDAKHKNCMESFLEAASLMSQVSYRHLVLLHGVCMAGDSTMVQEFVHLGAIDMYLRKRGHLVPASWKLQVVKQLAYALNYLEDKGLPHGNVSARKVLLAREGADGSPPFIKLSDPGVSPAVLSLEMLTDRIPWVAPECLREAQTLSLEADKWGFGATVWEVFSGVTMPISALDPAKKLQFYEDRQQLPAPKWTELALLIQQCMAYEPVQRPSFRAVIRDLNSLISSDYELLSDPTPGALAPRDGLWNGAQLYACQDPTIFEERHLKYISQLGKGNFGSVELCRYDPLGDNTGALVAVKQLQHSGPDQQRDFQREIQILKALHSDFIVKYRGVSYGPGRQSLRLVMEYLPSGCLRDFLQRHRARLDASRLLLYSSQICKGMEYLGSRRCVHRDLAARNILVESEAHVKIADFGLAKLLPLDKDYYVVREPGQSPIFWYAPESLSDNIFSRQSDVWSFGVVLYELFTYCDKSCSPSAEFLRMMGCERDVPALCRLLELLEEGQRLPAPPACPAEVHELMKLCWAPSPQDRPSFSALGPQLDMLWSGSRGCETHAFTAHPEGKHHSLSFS
smiles,measurement,setting,value
CCc1cc(O)ccc1-c1ccc2c(-c3nc(C4=CCCN(C(C)C)C4)c[nH]3)n[nH]c2c1F [Example 30],Ki,JAK3,0.1 to 1 nM
same,Ki,TYK2,1 to 10 nM
same,IC50,[1],10 to 31.6 nM
same,Ki,JAK2,0.1 to 1 nM
same,Ki,JAK1,0.1 to 1 nM
CCc1cc(O)ccc1-c1ccc2c(-c3nc(C4=CCN(C)C4)c[nH]3)n[nH]c2c1F [Example 31],Ki,JAK3,0.1 to 1 nM
same,Ki,TYK2,1 to 10 nM
same,IC50,[1],3.16 to 10 nM
same,Ki,JAK2,0.1 to 1 nM
same,Ki,JAK1,0.1 to 1 nM
CCc1cc(O)ccc1-c1ccc2c(-c3nc(C4=CCN(CCO)CC4)c[nH]3)n[nH]c2c1 [Example 33],Ki,JAK3,0.1 to 1 nM
same,Ki,TYK2,0.1 to 1 nM
same,IC50,[1],3.16 to 10 nM
same,JAK2 pKi,JAK2,A (A represents a pKi value ≥10 (Ki≤0.1 nM))
same,JAK1 pKi,JAK1,A (A represents a pKi value ≥10 (Ki≤0.1 nM))
CCc1cc(O)ccc1-c1ccc2c(-c3nc(C4=CCN(CCCO)CC4)c[nH]3)n[nH]c2c1 [Example 34],Ki,JAK3,0.1 to 1 nM
same,Ki,TYK2,1 to 10 nM
same,IC50,[1],3.16 to 10 nM
same,JAK2 pKi,JAK2,A (A represents a pKi value ≥10 (Ki≤0.1 nM))
same,JAK1 pKi,JAK1,A (A represents a pKi value ≥10 (Ki≤0.1 nM))
CCc1cc(O)ccc1-c1ccc2c(-c3nc(C4=CCN(CCO)CC4)c[nH]3)n[nH]c2c1F [Example 36],Ki,JAK3,0.1 to 1 nM
same,Ki,TYK2,1 to 10 nM
same,IC50,[1],3.16 to 10 nM
same,Ki,JAK2,0.1 to 1 nM
same,JAK1 pKi,JAK1,A (A represents a pKi value ≥10 (Ki≤0.1 nM))
CCc1cc(O)ccc1-c1ccc2c(-c3nc(C4=CCCN(CCCO)C4)c[nH]3)n[nH]c2c1 [Example 42],Ki,JAK3,0.1 to 1 nM
same,Ki,TYK2,1 to 10 nM
same,IC50,[1],3.16 to 10 nM
same,JAK2 pKi,JAK2,A (A represents a pKi value ≥10 (Ki≤0.1 nM))
same,JAK1 pKi,JAK1,A (A represents a pKi value ≥10 (Ki≤0.1 nM))
CCc1cc(O)ccc1-c1ccc2c(-c3nc(C4=CCN(CCO)C4)c[nH]3)n[nH]c2c1 [Example 50],Ki,JAK3,0.1 to 1 nM
same,Ki,TYK2,0.1 to 1 nM
same,IC50,[1],3.16 to 10 nM
same,JAK2 pKi,JAK2,A (A represents a pKi value ≥10 (Ki≤0.1 nM))
same,JAK1 pKi,JAK1,A (A represents a pKi value ≥10 (Ki≤0.1 nM))
CCc1cc(O)ccc1-c1ccc2c(-c3nc(C4=CCN(CCO)C4)c[nH]3)n[nH]c2c1F [Example 53],Ki,JAK3,0.1 to 1 nM
same,Ki,TYK2,1 to 10 nM
same,IC50,[1],3.16 to 10 nM
same,JAK2 pKi,JAK2,A (A represents a pKi value ≥10 (Ki≤0.1 nM))
same,JAK1 pKi,JAK1,A (A represents a pKi value ≥10 (Ki≤0.1 nM))
CCc1cc(O)ccc1-c1ccc2c(-c3nc(C4=CCN(CCCO)C4)c[nH]3)n[nH]c2c1F [Example 54],Ki,JAK3,0.1 to 1 nM
same,Ki,TYK2,1 to 10 nM
same,IC50,[1],3.16 to 10 nM
same,JAK2 pKi,JAK2,A (A represents a pKi value ≥10 (Ki≤0.1 nM))
same,JAK1 pKi,JAK1,A (A represents a pKi value ≥10 (Ki≤0.1 nM))
CCc1cc(O)ccc1-c1ccc2c(-c3nc(C4=CCN(C5COC5)CC4)c[nH]3)n[nH]c2c1 [Example 57],Ki,JAK3,0.1 to 1 nM
same,Ki,TYK2,1 to 10 nM
same,IC50,[1],10 to 31.6 nM
same,Ki,JAK2,0.1 to 1 nM
same,Ki,JAK1,0.1 to 1 nM
CCc1cc(O)ccc1-c1ccc2c(-c3nc(C4=CCN(C5COC5)CC4)c[nH]3)n[nH]c2c1F [Example 64],Ki,JAK3,0.1 to 1 nM
same,Ki,TYK2,1 to 10 nM
same,IC50,[1],10 to 31.6 nM
same,Ki,JAK2,0.1 to 1 nM
same,Ki,JAK1,0.1 to 1 nM
CCc1cc(O)ccc1-c1ccc2c(-c3nc(C4=CCCN(C5COC5)C4)c[nH]3)n[nH]c2c1F [Example 70],Ki,JAK3,0.1 to 1 nM
same,Ki,TYK2,10 to 100 nM
same,IC50,[1],31.6 to 100 nM
same,Ki,JAK2,0.1 to 1 nM
same,Ki,JAK1,1 to 10 nM
CCc1cc(O)ccc1-c1ccc2c(-c3nc(C4=CCN(C5COC5)C4)c[nH]3)n[nH]c2c1F [Example 75],Ki,JAK3,0.1 to 1 nM
same,Ki,TYK2,1 to 10 nM
same,IC50,[1],10 to 31.6 nM
same,Ki,JAK2,0.1 to 1 nM
same,Ki,JAK1,0.1 to 1 nM
CCc1cc(O)ccc1-c1ccc2c(-c3nc(C4=CCN(CCSC)CC4)c[nH]3)n[nH]c2c1F [Example 81],Ki,JAK3,0.1 to 1 nM
same,Ki,TYK2,1 to 10 nM
same,IC50,[1],31.6 to 100 nM
same,JAK2 pKi,JAK2,A (A represents a pKi value ≥10 (Ki≤0.1 nM))
same,Ki,JAK1,0.1 to 1 nM
CCc1cc(O)ccc1-c1ccc2c(-c3nc(C4=CCCN(CCSC)C4)c[nH]3)n[nH]c2c1F [Example 90],Ki,JAK3,0.1 to 1 nM
same,Ki,TYK2,10 to 100 nM
same,IC50,[1],31.6 to 100 nM
same,Ki,JAK2,0.1 to 1 nM
same,Ki,JAK1,0.1 to 1 nM
CCc1cc(O)ccc1-c1ccc2c(-c3nc(C4=CCN(C(=O)CN)CC4)c[nH]3)n[nH]c2c1 [Example 152],Ki,JAK3,0.1 to 1 nM
same,Ki,TYK2,1 to 10 nM
same,IC50,[1],10 to 31.6 nM
same,JAK2 pKi,JAK2,A (A represents a pKi value ≥10 (Ki≤0.1 nM))
same,Ki,JAK1,0.1 to 1 nM
CCc1cc(O)ccc1-c1ccc2c(-c3nc(C4=CCN(C(=O)[C@@H](N)C(C)(C)O)CC4)c[nH]3)n[nH]c2c1 [Example 153],Ki,JAK3,0.1 to 1 nM
same,Ki,TYK2,1 to 10 nM
same,IC50,[1],31.6 to 100 nM
same,JAK2 pKi,JAK2,A (A represents a pKi value ≥10 (Ki≤0.1 nM))
same,Ki,JAK1,0.1 to 1 nM
CCc1cc(O)ccc1-c1ccc2c(-c3nc(C4=CCN(C(=O)CN)CC4)c[nH]3)n[nH]c2c1F [Example 157],Ki,JAK3,0.1 to 1 nM
same,Ki,TYK2,1 to 10 nM
same,IC50,[1],31.6 to 100 nM
same,JAK2 pKi,JAK2,A (A represents a pKi value ≥10 (Ki≤0.1 nM))
same,Ki,JAK1,0.1 to 1 nM
CCc1cc(O)ccc1-c1ccc2c(-c3nc(C4=CCN(C(=O)[C@@H](N)C(C)(C)O)CC4)c[nH]3)n[nH]c2c1F [Example 158],Ki,JAK3,0.1 to 1 nM
same,Ki,TYK2,10 to 100 nM
same,IC50,[1],31.6 to 100 nM
same,Ki,JAK2,0.1 to 1 nM
same,Ki,JAK1,1 to 10 nM
CCc1cc(O)ccc1-c1ccc2c(-c3nc(C4=CCN(C(=O)CN)C4)c[nH]3)n[nH]c2c1F [Example 173],Ki,JAK3,0.1 to 1 nM
same,Ki,TYK2,1 to 10 nM
same,IC50,[1],31.6 to 100 nM
same,JAK2 pKi,JAK2,A (A represents a pKi value ≥10 (Ki≤0.1 nM))
same,Ki,JAK1,0.1 to 1 nM
CCc1cc(O)ccc1-c1ccc2c(-c3nc(C4=CCN(C(=O)[C@@H](N)C(C)(C)O)C4)c[nH]3)n[nH]c2c1F [Example 174],Ki,JAK3,0.1 to 1 nM
same,Ki,TYK2,1 to 10 nM
same,IC50,[1],10 to 31.6 nM
same,Ki,JAK2,0.1 to 1 nM
same,Ki,JAK1,0.1 to 1 nM
CCc1cc(O)ccc1-c1ccc2c(-c3nc(C4=CCN(S(=O)(=O)C5CNC5)CC4)c[nH]3)n[nH]c2c1 [Example 175],Ki,JAK3,0.1 to 1 nM
same,Ki,TYK2,1 to 10 nM
same,IC50,[1],31.6 to 100 nM
same,Ki,JAK2,0.1 to 1 nM
same,Ki,JAK1,0.1 to 1 nM
CCc1cc(O)ccc1-c1ccc2c(-c3nc(C4=CCN(S(=O)(=O)C5CNC5)CC4)c[nH]3)n[nH]c2c1F [Example 178],Ki,JAK3,1 to 10 nM
same,Ki,TYK2,10 to 100 nM
same,IC50,[1],100 to 316 nM
same,Ki,JAK2,0.1 to 1 nM
same,Ki,JAK1,1 to 10 nM
